Experimental data: patent US8177896B2, “Antifouling furan-2-one derivatives” (The Hong Kong University of Science and Technology, priority 2008, dated 2012)
In brackets after ≈: the same amount, converted by molar mass. Where two headings read alike, the source gives them in different places.

Experiments:
[1] = Larval settlement bioassay, barnacle Balanus amphitrite cyprids; format: in vivo; conditions: Balanus amphitrite (barnacle), cyprid larvae, in vivo, other: immersion, sample added to the seawater in the well
Experimental: (§1) The nauplii were reared in freshly filtered nature seawater (FSW, 0.45 μm, 32 S salinity) and fed with Chaetoceros gracilis Schutt at 24° C. in the Coastal Marine Laboratory the Hong Kong University of Science and Technology (HKUST). Cyprids were stored for 2 days at 8° C. (aged cyprids) prior to being used in the bioassays. Ten μl of each test sample dissolved in dimethyl sulfoxide (DMSO) were transferred into a well in 24-well polystyrene plate after the addition of 1 ml of FSW. The control wells contained 1 ml of FSW and 10 μl of DMSO. About 15 cyprids were added in each well with triplicate samples being tested.

[2] = tested on: Balanus amphitrite larvae; assay: as above; format: in vivo; conditions: for concentration at which significant inhibition of larval settlement was observed / inhibition of larval settlement (in words): B. amphitrite; for concentration at which significant inhibition of larval settlement was observed: compared with controls; for toxicity rating from LC50/EC50 ratio: according to Avelin et al. 1993 and Rittschof et al. 1994, ratios for all tested larvae
Experimental: as §1

[3] = Larval settlement bioassay, Hydroides elegans competent larvae; format: in vivo; conditions: competent larvae, in vivo, other: immersion, sample added to the seawater in the well; Hydroides elegans; highest concentration examined causing <50% death of larvae
Experimental: (§2) The 24-well plates were incubated at 28° C. for 24 h under a 15 h light/9 h dark photoperiod. The percentage of larval settlement and larval mortality was determined by counting the settled, live individuals under a dissecting microscope and expressing the result as a proportion of the total number of larvae in the well.

Hydroides elegans larvae = assay: as above; format: in vivo; conditions: for concentration at which significant inhibition of larval settlement was observed / inhibition of larval settlement (in words): H. elegans; for concentration at which significant inhibition of larval settlement was observed: compared with controls; for EC50: Hydroides elegans, 24 h, mean of at least three replicates, read-out: EC50 against larval settlement
Experimental: as §2

Bugula neritina larvae = assay: Larval settlement bioassay, Bugula neritina; conditions: for inhibition of larval settlement (in words): B. neritina
[4] = Degradation in buffer solutions and seawater; format: physicochemical
in vivo = conditions: Bugula neritina, larvae
[5] = Table 3, Balanus amphitrite larvae
[6] = Amphibalanus amphitrite, Table 3, Balanus amphitrite larvae, value ± spread, read-out: EC50
[7] = Balanus amphitrite, highest concentration examined causing <50% death of larvae
[8] = Amphibalanus amphitrite, 24 h, Balanus amphitrite, 24 h, mean of at least three replicates, read-out: EC50 against larval settlement
[9] = Table 3, Balanus amphitrite larvae, value ± spread

Row | Compound | LC50 at 24 h [1, 5] [µg/mL] | EC50 [2, 6] [µg/mL] | LC50 at 24 h [1, 7] [µg/mL] | EC50 [2, 8] [µg/mL] | LC50 at 24 h [3] [µg/mL] | concentration at which significant inhibition of larval settlement was observed (Hydroides elegans larvae) [µg/mL] | EC50 (Hydroides elegans larvae) [µg/mL] | LC50 [2, 5] [µg/mL] | EC50 [2, 9] [µg/mL] | also measured
1 | CC(O)C(C)(O)CCCC1C=CC(=O)O1 (single isomer, unassigned) [Compound 11] | > 100 | > 100 | – | – | – | – | – | – | – | –
2 | CCC(C)(O)CCCCCC1C=CC(=O)O1 (centres unmarked) [Compound 1] | > 100 | 14.8 ± 5.54 (≈ 65.4 µM) | > 100 | 14.8 (≈ 65.4 µM) | > 100 | 10 | 12 (≈ 53 µM) | – | – | concentration at which significant inhibition of larval settlement was observed [2]: 10 µg/mL
3 | CC(O)C(C)CCCCCC1C=CC(=O)O1 (centres unmarked) [Compound 2] | > 100 | 9.65 ± 1.5 (≈ 42.6 µM) | > 100 | 9.65 (≈ 42.6 µM) | > 100 | 5 | 4.4 (≈ 19.4 µM) | – | – | concentration at which significant inhibition of larval settlement was observed [2]: 10 µg/mL
4 | CC(=O)C(C)CCCCCC1C=CC(=O)O1 (centres unmarked) [Compound 3] | > 100 | 8.67 ± 2.73 (≈ 38.7 µM) | > 100 | 8.67 (≈ 38.7 µM) | > 100 | 5 | 5.6 (≈ 25 µM) | – | – | concentration at which significant inhibition of larval settlement was observed [2]: 25 µg/mL
5 | CC(C)(O)CCCCCC1C=CC(=O)O1 (centres unmarked) [Compound 4] | > 140 | > 100 | > 140 | > 100 | > 40 | 8 | 12.7 (≈ 59.8 µM) | – | – | inhibition of larval settlement (in words) [2]: efficient against the larval settlements especially for B. amphitrite
6 | CC(CCCCCC1C=CC(=O)O1)C(C)OC1CCCCO1 (centres unmarked) [Compound 5] | > 80 | 3.6 ± 0.56 (≈ 11.6 µM) | > 80 | 3.6 (≈ 11.6 µM) | > 100 | – | 6.4 (≈ 20.6 µM) | – | – | inhibition of larval settlement (in words) [2]: distinct inhibition effects; toxicity rating from LC50/EC50 ratio [2]: nontoxic or low toxic compound; inhibition of larval settlement (in words) (Hydroides elegans larvae): distinct inhibition effects; inhibition of larval settlement (in words) (Bugula neritina larvae): distinct inhibition effects
7 | CCCCCCCCC1C=CC(=O)O1 (centres unmarked) [Compound 6, 5-octylfuran-2-one] | > 50 | 0.52 ± 0.06 (≈ 2.65 µM) | > 50 | 0.52 (≈ 2.65 µM) | > 2 | – | 0.017 (≈ 0.0866 µM) | – | – | inhibition of larval settlement (in words) [2]: distinct inhibition effects; toxicity rating from LC50/EC50 ratio [2]: nontoxic or low toxic compound; inhibition of larval settlement (in words) (Hydroides elegans larvae): distinct inhibition effects; degradation in natural seawater [4]: can be easily degradated in natural seawater; LC50 (in vivo): > 50 µg/mL; inhibition of larval settlement (in words) (Bugula neritina larvae): distinct inhibition effects; EC50 against larval settlement (Bugula neritina larvae; Bugula neritina, mean of at least three replicates): 0.2 µg/mL (≈ 1.02 µM)
8 | CC(O)C(C)(O)CCCC1C=CC(=O)O1 (centres unmarked) [Compound 7] | – | – | – | – | – | – | – | >25 | 4.82 ± 1.25 (≈ 22.5 µM) | –
9 | CC(O)C(C)(O)CCCC1C=CC(=O)O1 (centres unmarked) [Compound 8] | – | – | – | – | – | – | – | >100 | >100 | –
10 | CC(O)C(C)(O)CCCC1C=CC(=O)O1 (centres unmarked) [Compound 9] | – | – | – | – | – | – | – | >100 | >100 | –
11 | CC(O)C(C)(O)CCCC1C=CC(=O)O1 (centres unmarked) [Compound 10] | – | – | – | – | – | – | – | >100 | >100 | –
